System: patients with advanced solid tumors
Test: First-in-human phase 1 dose-escalation study: safety, DLTs, adverse events
Type: in vivo
Source text: This multicenter first-in-human dose-escalation phase 1 study (clinicaltrials.gov identifier: NCT03272256) was designed to determine the MTD or RP2D and to evaluate the safety and tolerability of IM156. Secondary endpoints included PK characteristics, efficacy assessment (objective response rate [ORR], disease control rate [DCR], duration of response [DoR] and progression-free survival [PFS]). Furthermore, exploratory objectives included identification and profiling of IM156 metabolites, evaluations of exploratory PD markers of IM156, and evaluations of any potential relationship between putative biomarkers and safety/efficacy parameters of IM156. The study was conducted in accordance with Good Clinical Practice, the International Council for Harmonisation, and guidelines governing clinical study conduct and the ethical principles originating from the Declaration of Helsinki. The study was approved by each Institutional Review Board and patients provided written informed consent. Patients were enrolled at three sites in South Korea.
The initial dose and schedule of IM156 was chosen based on animal toxicology studies. […] IM156 was administered in the fasted state, with no food for at least 2 h before and 1 h after dosing.
Three DLT-evaluable patients were enrolled at each dose level. If there were no DLTs or other prohibitive adverse events (AEs), the Safety Committee was allowed to recommend escalation to the next highest dose level. If 1 DLT occurred in the first 3 DLT-evaluable patients, enrollment in that cohort was expanded to an additional 3 DLT-evaluable patients; if ≥ 2 DLTs were reported in a cohort, that dose was considered above the MTD.
Safety was assessed through vital signs, weight, laboratory assessments, physical examinations, electrocardiogram, and reporting of AEs as graded by the National Cancer Institute’s Common Terminology Criteria for Adverse Events v4.03 (NCI-CTCAE).
DLTs were defined as the following AEs if they were attributed as related to IM156: asymptomatic grade 4 neutropenia lasting for ≥ 5 days; febrile neutropenia, regardless of grade; grade 4 thrombocytopenia or grade 3 thrombocytopenia with bleeding; any grade ≥ 3 non-hematologic AE (except grade 3 hypertension and grade 3 nausea, vomiting or diarrhea for which proper measures for prevention and treatment were not implemented, and alopecia); blood lactate levels > 5 mmol; grade ≥ 2 AE prohibiting dosing of IM156 for ≥ 21 continuous days except for alterations in serum calcium or phosphorus levels. The safety analysis includes all patients who received at least one dose of study drug.
The safety population was defined as all patients who received at least one dose of IM156. The PK population was not defined in the protocol but included all patients with sufficient PK data to perform adequate PK modeling. The efficacy population included all patients who underwent at least one tumor imaging assessment while receiving IM156. Safety was assessed using descriptive statistics (e.g., DLTs, AEs, laboratory tests, physical examination, 12-lead ECG). The incidence and number of events were reported for the DLTs observed in Cycle 1 per dose group. […] Adverse events and TRAEs were standardized with the System Organ Class and the Preferred Term using the Medical Dictionary for Regulatory Activities v23.0. In addition, TEAEs, serious adverse events (SAEs), TEAE severity, and TEAEs leading to withdrawal were presented by dose group. Efficacy data were to be presented by Waterfall and Swim Lane plots. Time to event endpoints (e.g., DoR, PFS) were determined using Kaplan–Meier estimations with the median value for each endpoint summarized.

NC(=Nc1ccc(OC(F)(F)F)cc1)N=C(N)N1CCCC1 [IM156]
TEAE Pain in extremity grade 4 (DL6 800 mg orally daily (n=3)): 0
TEAE Pruritus grade 1 (DL6 800 mg orally daily (n=3)): 0
TEAE Pruritus grade 2 (DL6 800 mg orally daily (n=3)): 0
TEAE Pruritus grade 3 (DL6 800 mg orally daily (n=3)): 0
TEAE Pruritus grade 4 (DL6 800 mg orally daily (n=3)): 0
TEAE Psychiatric disorders grade 1 (DL6 800 mg orally daily (n=3)): 1
TEAE Psychiatric disorders grade 2 (DL6 800 mg orally daily (n=3)): 0
TEAE Psychiatric disorders grade 3 (DL6 800 mg orally daily (n=3)): 0
TEAE Psychiatric disorders grade 4 (DL6 800 mg orally daily (n=3)): 0
TEAE Purpura grade 1 (DL6 800 mg orally daily (n=3)): 0
TEAE Purpura grade 2 (DL6 800 mg orally daily (n=3)): 0
TEAE Purpura grade 3 (DL6 800 mg orally daily (n=3)): 0
TEAE Purpura grade 4 (DL6 800 mg orally daily (n=3)): 0
TEAE Urinary retention grade 1 (DL6 800 mg orally daily (n=3)): 0
TEAE Urinary retention grade 2 (DL6 800 mg orally daily (n=3)): 0
TEAE Urinary retention grade 3 (DL6 800 mg orally daily (n=3)): 0
TEAE Urinary retention grade 4 (DL6 800 mg orally daily (n=3)): 0
TEAE Urinary tract disorder grade 1 (DL6 800 mg orally daily (n=3)): 0
TEAE Urinary tract disorder grade 2 (DL6 800 mg orally daily (n=3)): 0
TEAE Urinary tract disorder grade 3 (DL6 800 mg orally daily (n=3)): 0
TEAE Urinary tract disorder grade 4 (DL6 800 mg orally daily (n=3)): 0
TEAE Abdominal pain, grade 2 (DL7 1200 mg QD (n=4)): 2
TEAE Akathisia, grade 2 (DL7 1200 mg QD (n=4)): 1
TEAE Alanine aminotransferase increased, grade 1 (DL7 1200 mg QD (n=4)): 1
TEAE Aspartate aminotransferase increased, grade 1 (DL7 1200 mg QD (n=4)): 1
TEAE Blood creatinine increased, grade 1 (DL7 1200 mg QD (n=4)): 2
TEAE Blood lactic acid increased, grade 1 (DL7 1200 mg QD (n=4)): 1
TEAE Constipation, grade 1 (DL7 1200 mg QD (n=4)): 1
TEAE Decreased appetite, grade 2 (DL7 1200 mg QD (n=4)): 1
TEAE Diarrhoea, grade 1 (DL7 1200 mg QD (n=4)): 2
TEAE Dysesthesia, grade 1 (DL7 1200 mg QD (n=4)): 1
TEAE Fatigue, grade 2 (DL7 1200 mg QD (n=4)): 3
TEAE Gastritis, grade 1 (DL7 1200 mg QD (n=4)): 1
TEAE Hemoptysis, grade 2 (DL7 1200 mg QD (n=4)): 1
TEAE Hyperkalaemia, grade 3 (DL7 1200 mg QD (n=4)): 1
TEAE Ileus, grade 2 (DL7 1200 mg QD (n=4)): 1
TEAE Influenza like illness, grade 1 (DL7 1200 mg QD (n=4)): 1
TEAE Lethargy, grade 2 (DL7 1200 mg QD (n=4)): 1
TEAE Nausea, grade 2 (DL7 1200 mg QD (n=4)): 2
TEAE Nausea, grade 3 (DL7 1200 mg QD (n=4)): 2
TEAE Oedema peripheral, grade 2 (DL7 1200 mg QD (n=4)): 1
TEAE Pain, grade 2 (DL7 1200 mg QD (n=4)): 1
TEAE Platelet count decreased, grade 1 (DL7 1200 mg QD (n=4)): 1
TEAE Pyrexia, grade 1 (DL7 1200 mg QD (n=4)): 2
TEAE Pyrexia, grade 2 (DL7 1200 mg QD (n=4)): 1
TEAE Vomiting, grade 1 (DL7 1200 mg QD (n=4)): 3
TRAE Abdominal Pain, > G3 (patients) (DL7 1,200 mg QD, N = 4): 0
TRAE Abdominal Pain, All grades (patients) (DL7 1,200 mg QD, N = 4): 1
TRAE Blood Lactic Acid increased, > G3 (patients) (DL7 1,200 mg QD, N = 4): 0
TRAE Blood Lactic Acid increased, All grades (patients) (DL7 1,200 mg QD, N = 4): 1
TRAE Constipation, > G3 (patients) (DL7 1,200 mg QD, N = 4): 0
TRAE Constipation, All grades (patients) (DL7 1,200 mg QD, N = 4): 1
TRAE Decreased appetite, > G3 (patients) (DL7 1,200 mg QD, N = 4): 0
TRAE Decreased appetite, All grades (patients) (DL7 1,200 mg QD, N = 4): 1
TRAE Diarrhoea, > G3 (patients) (DL7 1,200 mg QD, N = 4): 0
TRAE Diarrhoea, All grades (patients) (DL7 1,200 mg QD, N = 4): 1
TRAE Fatigue, > G3 (patients) (DL7 1,200 mg QD, N = 4): 0
TRAE Fatigue, All grades (patients) (DL7 1,200 mg QD, N = 4): 3
TRAE Insomnia, > G3 (patients) (DL7 1,200 mg QD, N = 4): 0
TRAE Insomnia, All grades (patients) (DL7 1,200 mg QD, N = 4): 0
TRAE Nausea, > G3 (patients) (DL7 1,200 mg QD, N = 4): 2
TRAE Nausea, All grades (patients) (DL7 1,200 mg QD, N = 4): 4
TRAE Vomiting, > G3 (patients) (DL7 1,200 mg QD, N = 4): 0
TRAE Vomiting, All grades (patients) (DL7 1,200 mg QD, N = 4): 3
TEAE Adrenal insufficiency grade 1 (DL7 1200 mg orally daily (n=4)): 0
TEAE Adrenal insufficiency grade 2 (DL7 1200 mg orally daily (n=4)): 0
TEAE Adrenal insufficiency grade 3 (DL7 1200 mg orally daily (n=4)): 0
TEAE Adrenal insufficiency grade 4 (DL7 1200 mg orally daily (n=4)): 0
TEAE Anaemia grade 1 (DL7 1200 mg orally daily (n=4)): 0
TEAE Anaemia grade 2 (DL7 1200 mg orally daily (n=4)): 1
TEAE Anaemia grade 3 (DL7 1200 mg orally daily (n=4)): 1
TEAE Anaemia grade 4 (DL7 1200 mg orally daily (n=4)): 0
TEAE Appendicitis perforated grade 1 (DL7 1200 mg orally daily (n=4)): 0
TEAE Appendicitis perforated grade 2 (DL7 1200 mg orally daily (n=4)): 0
TEAE Appendicitis perforated grade 3 (DL7 1200 mg orally daily (n=4)): 1
TEAE Appendicitis perforated grade 4 (DL7 1200 mg orally daily (n=4)): 0
TEAE Back pain grade 1 (DL7 1200 mg orally daily (n=4)): 0
TEAE Back pain grade 2 (DL7 1200 mg orally daily (n=4)): 0
TEAE Back pain grade 3 (DL7 1200 mg orally daily (n=4)): 0
TEAE Back pain grade 4 (DL7 1200 mg orally daily (n=4)): 0
TEAE Cystitis grade 1 (DL7 1200 mg orally daily (n=4)): 0
TEAE Cystitis grade 2 (DL7 1200 mg orally daily (n=4)): 0
TEAE Cystitis grade 3 (DL7 1200 mg orally daily (n=4)): 0
TEAE Cystitis grade 4 (DL7 1200 mg orally daily (n=4)): 0
TEAE Dry skin grade 1 (DL7 1200 mg orally daily (n=4)): 0
TEAE Dry skin grade 2 (DL7 1200 mg orally daily (n=4)): 1
TEAE Dry skin grade 3 (DL7 1200 mg orally daily (n=4)): 0
TEAE Dry skin grade 4 (DL7 1200 mg orally daily (n=4)): 0
TEAE Flank pain grade 1 (DL7 1200 mg orally daily (n=4)): 0
TEAE Flank pain grade 2 (DL7 1200 mg orally daily (n=4)): 0
TEAE Flank pain grade 3 (DL7 1200 mg orally daily (n=4)): 0
TEAE Flank pain grade 4 (DL7 1200 mg orally daily (n=4)): 0
TEAE Hypertension grade 1 (DL7 1200 mg orally daily (n=4)): 0
TEAE Hypertension grade 2 (DL7 1200 mg orally daily (n=4)): 0
TEAE Hypertension grade 3 (DL7 1200 mg orally daily (n=4)): 0
TEAE Hypertension grade 4 (DL7 1200 mg orally daily (n=4)): 0
TEAE Hypotension grade 1 (DL7 1200 mg orally daily (n=4)): 0
TEAE Hypotension grade 2 (DL7 1200 mg orally daily (n=4)): 0
TEAE Hypotension grade 3 (DL7 1200 mg orally daily (n=4)): 0
TEAE Hypotension grade 4 (DL7 1200 mg orally daily (n=4)): 0
TEAE Insomnia grade 1 (DL7 1200 mg orally daily (n=4)): 0
TEAE Insomnia grade 2 (DL7 1200 mg orally daily (n=4)): 0
TEAE Insomnia grade 3 (DL7 1200 mg orally daily (n=4)): 0
TEAE Insomnia grade 4 (DL7 1200 mg orally daily (n=4)): 0
TEAE Pain in extremity grade 1 (DL7 1200 mg orally daily (n=4)): 0
TEAE Pain in extremity grade 2 (DL7 1200 mg orally daily (n=4)): 0
TEAE Pain in extremity grade 3 (DL7 1200 mg orally daily (n=4)): 0
TEAE Pain in extremity grade 4 (DL7 1200 mg orally daily (n=4)): 0
TEAE Pruritus grade 1 (DL7 1200 mg orally daily (n=4)): 1
TEAE Pruritus grade 2 (DL7 1200 mg orally daily (n=4)): 0
TEAE Pruritus grade 3 (DL7 1200 mg orally daily (n=4)): 0
TEAE Pruritus grade 4 (DL7 1200 mg orally daily (n=4)): 0
TEAE Psychiatric disorders grade 1 (DL7 1200 mg orally daily (n=4)): 0
TEAE Psychiatric disorders grade 2 (DL7 1200 mg orally daily (n=4)): 0
TEAE Psychiatric disorders grade 3 (DL7 1200 mg orally daily (n=4)): 0
TEAE Psychiatric disorders grade 4 (DL7 1200 mg orally daily (n=4)): 0
TEAE Purpura grade 1 (DL7 1200 mg orally daily (n=4)): 1
